# Laboratory results from US11541120B2, “Phosphonium-based ionic drug conjugates” (Anthos Partners, LP, priority 2017, dated 2023).
# Tested on: not listed separately
# Test: Water solubility of PBICs
# Type: physicochemical
# Settings: not given
# Experimental: (§1) The water solubilties and partition coefficients of the PBICs were measured and compared to the values of the therapeutic agent by itself. To determine the partition coefficient Log D7.4 data provided in Table 2, a solution of the compound or conjugate was prepared in aqueous phosphate buffered saline (PBS) at a concentration of 100 micromolar (μM). The PBS solution was shaken with octanol. Thus, in Table 2, Log D7.4=Log (concentration in octanol/concentration in aqueous phosphate buffered saline (PBS))=Log[(initial concentration in PBS−final concentration in PBS)/final concentration in PBS], as the concentration in octanol is derived from the loss of compound from the aqueous PBS layer.
row,Molecule,"Water solubility, Drug [mg/L]"
1,"CC(C)Cc1ccc(C(C)C(=O)O)cc1 (centres unmarked) [Ibuprofen, reference compound]",21.0

# Same assay, conditions: MitoQ conjugate of the drug
row,Molecule,"Water solubility, MitoQ Conjugate"
1,"CC(C)Cc1ccc(C(C)C(=O)[O-])cc1.COC1=C(OC)C(=O)C(CCCCCCCCCC[P+](c2ccccc2)(c2ccccc2)c2ccccc2)=C(C)C1=O [Ibuprofen-MitoQ, Ibuprofen MitoQ conjugate]",Insoluble

# Same assay, conditions: TPMP conjugate of the drug
row,Molecule,"Water solubility, TPMP Conjugate"
1,(R)-3-Hydroxybutyric Acid-TPMP conjugate [R-3-Hydroxybutyric acid TPMP Conjugate],"2,867,500.0 mg/L"
2,Baclofen-TPMP conjugate [Baclofen TPMP Conjugate],"13,500.0 mg/L"
3,Captopril TPMP conjugate,"3,036,666.7 mg/L"
4,Deoxycholic acid TPMP conjugate,"2,518,000.0 mg/L"
5,Diflunisal-TPMP conjugate [Diflunisal TPMP Conjugate],"1,518,333.3 mg/L"
6,Indomethacin-TPMP conjugate [Indomethacin TPMP Conjugate],"1,700,000.0 mg/L"
7,L-Thyroxine TPMP conjugate [Levothyroxine TPMP Conjugate],<400 mg/L
8,Latanoprost Acid-TPMP conjugate [Latanoprost TPMP Conjugate],"2,187,777.8 mg/L"
9,Retinoic Acid-TPMP conjugate [Retinoic acid TPMP Conjugate],"2,624,000.0 mg/L"
10,Travoprost Acid-TPMP conjugate [Travoprost TPMP Conjugate],"1,921,666.7 mg/L"
11,Treprostinil TPMP conjugate,"2,558,000.0 mg/L"
12,racemic 3-Hydroxybutyric Acid-TPMP conjugate [3-hydroxybutyric acid TPMP Conjugate],"4,332,500.0 mg/L"

# Same assay, conditions: parent drug by itself
row,Molecule,"Water solubility, Drug"
1,C[C@H](CCC(=O)O)[C@H]1CC[C@H]2[C@@H]3CC[C@@H]4C[C@H](O)CC[C@]4(C)[C@H]3C[C@H](O)[C@]12C [Deoxycholic acid],43.6 mg/L
2,CC1=C(/C=C/C(C)=C/C=C/C(C)=C/C(=O)O)C(C)(C)CCC1 [Retinoic acid],"1,000.0 mg/L"

# Same assay, conditions: water; parent drug by itself
row,Molecule,solubility [µg/mL]
1,CC(O)CC(=O)O (racemic) [3-hydroxybutyric acid],444000
2,NCC(CC(=O)O)c1ccc(Cl)cc1 (centres unmarked) [Baclofen],700
3,C[C@H](CS)C(=O)N1CCC[C@H]1C(=O)O [Captopril],160000
4,O=C(O)c1cc(-c2ccc(F)cc2F)ccc1O [Diflunisal],14.5
5,COc1ccc2c(c1)c(CC(=O)O)c(C)n2C(=O)c1ccc(Cl)cc1 [Indomethacin],0.9
6,CC(C)OC(=O)CCC/C=C\C[C@@H]1[C@@H](CC[C@@H](O)CCc2ccccc2)[C@H](O)C[C@@H]1O [Latanoprost],8
7,N[C@@H](Cc1cc(I)c(Oc2cc(I)c(O)c(I)c2)c(I)c1)C(=O)O [Levothyroxine],0.2
8,"C[C@@H](O)CC(=O)O [R-3-Hydroxybutyric acid, (R)-3-hydroxybutyric acid]",444000
9,O=C(O)c1cc(/N=N/c2ccc(S(=O)(=O)Nc3ccccn3)cc2)ccc1O [Sulfasalazine],1
10,CC(C)OC(=O)CCC/C=C\C[C@@H]1[C@@H](/C=C/[C@@H](O)COc2cccc(C(F)(F)F)c2)[C@H](O)C[C@@H]1O [Travoprost],7
11,CCCCC[C@H](O)CC[C@@H]1[C@H]2Cc3cccc(OCC(=O)O)c3C[C@H]2C[C@H]1O [Treprostinil],7

# Tested on: not listed separately
# Test: Partition coefficient octanol/PBS (LogD7.4)
# Type: physicochemical
# Settings: 100 μM in PBS shaken with octanol
# Experimental: as §1
Molecule,(Conc. in octanol)/(Conc. in PBS),LogD7.4
"CC(C)Cc1ccc(C(C)C(=O)[O-])cc1.COC1=C(OC)C(=O)C(CCCCCCCCCC[P+](c2ccccc2)(c2ccccc2)c2ccccc2)=C(C)C1=O [Ibuprofen-MitoQ, Ibuprofen MitoQ conjugate]",9.94,1.00
CCC1C(O)C2C3CCC(C(C)CCC(=O)[O-])C3(C)CCC2C2(C)CCC(O)CC12.COC1=C(OC)C(=O)C(CCCCCCCCCC[P+](c2ccccc2)(c2ccccc2)c2ccccc2)=C(C)C1=O [Obeticholic acid-MitoQ],624.00,2.80
Obeticholic acid-TPMP,"1,182.39",3.07

# Tested on: not given
# Test: not given
# Settings: parent drug; cited from earlier work
row,Molecule,LogP (Reported)
1,"CC[C@H]1[C@@H](O)[C@@H]2[C@H](CC[C@]3(C)[C@@H]([C@H](C)CCC(=O)O)CC[C@@H]23)[C@@]2(C)CC[C@@H](O)C[C@@H]12 [Obeticholic acid, reference compound]",3.5

# Tested on: not listed separately
# Test: Caco-2 cell permeability
# Settings: human, Caco-2
Molecule,Papp A→B [×10⁻⁶ cm/s],Papp B→A [×10⁻⁶ cm/s],efflux ratio
"O=C(O)Cc1ccccc1Nc1c(Cl)cccc1Cl [Diclofenac, reference compound]",34.5,13.5,
"CC(C)Cc1ccc(C(C)C(=O)O)cc1 (centres unmarked) [Ibuprofen, reference compound]",40.5,19,
"CC[C@H]1[C@@H](O)[C@@H]2[C@H](CC[C@]3(C)[C@@H]([C@H](C)CCC(=O)O)CC[C@@H]23)[C@@]2(C)CC[C@@H](O)C[C@@H]12 [Obeticholic acid, reference compound]",32.6,3.23,0.0989

# Tested on: Caco-2
# Test: Caco-2 cell permeability
# Settings: No Inhibitor
Molecule,Mean (B-A/A-B) Efflux Ratio,Mean Papp A-B,Mean Papp B-A
"CC(C)Cc1ccc(C(C)C(=O)[O-])cc1.COC1=C(OC)C(=O)C(CCCCCCCCCC[P+](c2ccccc2)(c2ccccc2)c2ccccc2)=C(C)C1=O [Ibuprofen-MitoQ, Ibuprofen MitoQ conjugate]",0.467,52.1 10^−6 cm/s,24.3 10^−6 cm/s
CCC1C(O)C2C3CCC(C(C)CCC(=O)[O-])C3(C)CCC2C2(C)CCC(O)CC12.COC1=C(OC)C(=O)C(CCCCCCCCCC[P+](c2ccccc2)(c2ccccc2)c2ccccc2)=C(C)C1=O [Obeticholic acid-MitoQ],0.0872,18.9 10^−6 cm/s,1.65 10^−6 cm/s
Obeticholic acid-TPMP,0.103,20.5 10^−6 cm/s,2.11 10^−6 cm/s
